# Results taken from article PMC10483525, “Synthesis, Structural Investigations, DNA/BSA Interactions, Molecular Docking Studies, and Anticancer Activity of a New 1,4-Disubstituted 1,2,3-Triazole Derivative” (ACS Omega, 2023).
# Legend:
# Caco-2 cells = assay: ROS determination (flow cytometry); format: cell-based, human; conditions: Caco-2, 48 h, 0, 7.5, 1.5, and 30 μM
# Experimental: Biosciences, San Jose, CA, USA)
# The intracellular ROS generation was evaluated using The Total Reactive Oxygen Species
# (ROS) Assay Kit. Caco2 cells (5x10^5 per well) were seeded in 6-well plates and were incubated for 24 h in a 37°C incubator with 5% CO2. Then cells were treated with compound 3 ([…]) for 48 h to induce production of ROS. Cells were harvested and incubated with 10 […] H2DCFDA for 30 min at 37°C incubator with 5% CO2, followed by resuspending three times with pre-warmed HBSS (2000 rpm×3 min). Total ROS levels in live cells were measured using a flow cytometry (BD Biosciences, San Jose, CA, USA).
# MDA-MB-231 = assay: MTT assay; format: cell-based, human; conditions: for IC50: Homo sapiens
# Experimental: (§1) Human cancer cell lines (MDA-MB-231, LNCaP, Caco-2) and a human healthy cell line (HEK-293) were obtained from the European Collection of Cell Cultures. The cells were incubated in a humidified incubator (37 °C, 5% CO2) and cultured under standard conditions in Dulbecco’s modified Eagle medium (DMEM), 10% heat-inactivated fetal bovine serum, 100 U mL^–1 penicillin, 100 U mL^–1 streptomycin, and 4 mM L-glutamine. […] A cell culture medium was used to make further dilutions, while keeping the equivalent of DMF below 0.5% of the total volume.[94] […]
# (§2) 7. Cell Viability Inhibition Assay
# (§3) MDA-MB-231, LNCaP, Caco-2 and HEK-293 cells (5x10^3 per well) seeded in 96-well plates to assess cell viability by the 3-[4,5-dimethylthiazol-2-yl]-2,5-diphenyltetrazolium bromide (MTT) assay for 24 h at 37°C. Then cells were treated with compound 3 at different concentrations (3-100 µM) at 100μl/well. In parallel, the traditional anticancer agent cisplatin and etoposid was used as positive controls under identical conditions. After 24, 48 and 72 h incubation, 5 mg/ml MTT solution (20 μl/well) was added and cultured for another 4 h. Then, the supernatant was discarded and dimethyl sulfoxide was added (100 μl/well). The absorbance (A) was measured spectrophotometrically at 540 nm by a Microplate Reader (SpectraMax i3x).
# (§4) A graph was plotted between the concentrations of the extract versus the percent viability. The […]
# (§5) calculated from graph. All assays were performed in three replicates per concentration level. 11 […]
# LNCaP = assay: MTT assay; format: cell-based, human; conditions: for IC50: Homo sapiens, LNCaP
# Experimental: as §1, §2, §3, §4, §5
# HEK-293 = assay: MTT assay; format: cell-based, human; conditions: Homo sapiens, HEK293
# Experimental: as §1, §2, §3, §4, §5
# EB + CT-DNA adduct = assay: EB displacement (competitive fluorescence emission quenching); format: binding; conditions: EB 5 μM + CT-DNA 25 μM
# Experimental: The competitive emission quenching experiment was carried out using a well-known intercalating agent and fluorescent probe for DNA, ethidium bromide (EtBr).[83] The compound in varying concentrations (0–150) was added to the [EB (5 μM) + CT-DNA (25 μM)] adduct. The excitation wavelength was fixed to 510 nm, and the emission spectra were recorded (λem = 500–700 nm). The quenching efficiency of the compound was analyzed using the Stern–Volmer and Scatchard equations, and the Stern–Volmer (quenching) constant, Ksv, the bimolecular quenching rate constant, kq, binding constant, Kbin, and the number of binding sites per nucleotide, n, were calculated.[84]
# Absorption spectral studies […]
# sufficiently free of protein. The DNA concentration per nucleotide was determined by […]
# sample solutions to eliminate the absorbance of CT-DNA. […]
# mixture was allowed to incubate for 5 minutes before the absorption spectrum was recorded.
# The intrinsic binding constant Kb of compound was calculated by using Wolfe-Shimmer […]
# Fluorescence spectral studies
# The fluorescence quenching experiments were performed for additional support for binding of […]
# EB+CT-DNA solution. The fluorescence spectra of 200 μL/well solutions in a 96-well plate
# were recorded with 510 nm excitation and the emission spectra of constant [EB+CT-DNA] with
# varying the compound concentration were recorded (λ em =500–700). […]
# [1] = 48 h, SI = IC50 on normal cells/IC50 on cancer cells
smiles,measurement,setting,value
"O=Cc1ccc(OCc2cn(-c3ccc(Cl)c(Cl)c3)nn2)cc1O [Compound 3, 4-((1-(3,4-Dichlorophenyl)-1H-1,2,3-triazol-4-yl)methoxy)-2-hydroxybenzaldehyde]",ROS production (fluorescence intensity),Caco-2 cells,increased the fluorescence intensity
same,SI HEK-293/MDA-MB-231,MDA-MB-231; [1],2.3
same,IC50,"MDA-MB-231; MDA-MB-231, 24 h",65.03 ± 0.31 µM
same,IC50,"MDA-MB-231; MDA-MB-231, 48 h",10.64 ± 0.03 µM
same,IC50,"MDA-MB-231; MDA-MB-231, 72 h",8.39 ± 0.04 µM
same,SI HEK-293/LNCap,LNCaP; [1],1.43
same,IC50,LNCaP; 24 h,44.82 ± 0.09 µM
same,IC50,LNCaP; 48 h,17.1 ± 0.26 µM
same,IC50,LNCaP; 72 h,10.05 ± 0.03 µM
same,"SI, times higher than cisplatin",LNCaP; LNCap cells,8 times
same,IC50,"HEK-293; HEK-293, 24 h",43.95 ± 0.2 µM
same,IC50,"HEK-293; HEK-293, 48 h",24.44 ± 0.13 µM
same,IC50,"HEK-293; HEK-293, 72 h",17.09 ± 0.08 µM
same,Ksv (Stern–Volmer quenching constant),"EB + CT-DNA adduct; compound 0–150 μM, λex 510 nm, emission 602 nm",4.13 × 10^3 M^–1
same,Kbin (binding constant),EB + CT-DNA adduct; Scatchard equation,3.45 × 10^4 M^–1
